The nature of the series: gradient 5% acetonitrile 3 min, to 50% in 2 min, to 85% in 15 min, held 3 min, 100 µL/min. Conditions: column: Zorbax Extend-C18 2.1 x 50 mm; eluents: water / acetonitrile, 0.1% formic acid. In short, it runs like this:
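A Zorbax Extend-C18 column (2.1 × 50 mm, 1.8 μm) run at 100 μL/min with water and acetonitrile, both containing 0.1% formic acid, separated mixtures of ~100 pure standards. The HPLC was coupled to a quadrupole time-of-flight mass spectrometer operated in positive and negative ionization mode, with dead and dwell volumes of 40 μL and 900 μL. Each retention time was taken from a computationally picked adduct peak that was then manually inspected.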
As to `CC(=O)NC(Cc1c[nH]c2ccccc12)C(=O)O` (stereo unspecified), the RP-LC retention time amounted to 605 s. Compound `Cc1nn(C)cc1CN(C)C(=O)c1ccc(-c2ccccc2)cc1` registered an RP-LC retention time of 738 s.

On to `CCCCn1c(CN(C)C(=O)c2ccco2)nc2ccccc21`, for which the RP-LC retention time worked out at 648 s. The same measure for `COc1ccc(NC(=O)CCc2cccc3[nH]ccc23)c(OC)c1`: 831 s; for `COc1ccc(-c2nc3cnccn3c2Nc2ccc(C(=O)NC(C)C)cc2)cc1OC`: 661 s; for `COC(=O)CNC(=O)N1CCCCCC1c1cccc(C)c1` (stereo unspecified): 840 s. The same measure for `COc1ccc(-n2ccc(=O)c(-c3nc(-c4cccc(Br)c4)no3)n2)cc1`: 985 s; for `Cc1cc(-c2ccc(C(C)C)c(S(=O)(=O)N3CCN(c4ccccn4)CC3)c2)on1`: 819 s; for `Cn1cc(CN2CCCC(COc3ccccc3C(=O)NC3CC3)C2)c2ccccc21` (stereo unspecified): 686 s. Under `CCCCN1C(=O)C(C)(C(=O)Nc2ccc(OCC)cc2)Oc2cccnc21` (stereo unspecified) stands 1060 s; under `O=C(NCc1ccco1)C1CCN(c2cncnc2N2CCCCC2)CC1`, 646 s; under `CC1=C(c2ccc(F)cc2)S(=O)(=O)N=C1N1CCC(NC(=O)C2CCOC2)CC1` (stereo unspecified), 664 s.

The compound `CCOC(=O)c1noc2ncnc(NCCc3ccc(OCC)cc3)c12` yielded an RP-LC retention time of 1060 s.

With `COc1ccc(Cc2nnc3sc(-c4ccccc4)nn23)cc1`, the RP-LC retention time is 810 s. Under `CC1(C)CC(=O)c2cn(-c3ccccc3)c(=O)c(C(=O)NC3CCCC3)c2C1` stands 932 s; under `Cc1ccccc1NS(=O)(=O)c1ccc2c(c1)C(=O)N(C)c1ncccc1O2`, 892 s. The same measure for `O=C(Cn1ccc2cc(S(=O)(=O)N3CCCCCC3)ccc21)N1CCN(c2ccccn2)CC1`: 707 s; for `O=C(NCCc1ccccc1)N1CCc2nc[nH]c2C1`: 575 s. Consider `CCn1c(=O)c(NCCc2ccc(OC)c(OC)c2)nc2ccncc21`, for which the RP-LC retention time came out at 618 s. Under `O=C(Nc1ccc(F)cc1)c1nnc(C(=O)N2CCC(C(=O)NCc3ccccn3)CC2)s1` stands 909 s; under `COc1ccc(NC(=O)NC2CCN(c3ccc(C)cc3)C2=O)cc1OC` (stereo unspecified), 720 s; under `CC1CCN(c2ncc3c(n2)CCC(C(=O)NCc2ccc(OC(C)C)cc2)C3)CC1` (stereo unspecified), 908 s. Under `CC(C)C(=O)N1CCCCCNC(=O)[C@@H]2CCCC[C@@H]21` stands 700 s. The same measure for `O=C(CN1C(=O)COc2ccc(C(=O)N3CCN(c4ccc(F)cc4)CC3)cc21)N1CCCC1`: 736 s; for `Cn1nc(C(=O)N2CCCC2)c2c1CCN(C(=O)Nc1cc(F)ccc1F)C2`: 728 s; for `COC(=O)c1ccc(Nc2nc(C)nc3c2CCC3)cc1`: 615 s.

Consider `CCn1ccc2c(cc(C(=O)Nc3cccc(C(F)(F)F)c3)n2C)c1=O`, for which the RP-LC retention time was determined as 880 s. The compound `CCC1CCCCN1C(=O)c1cnc2nc(C)ccc2c1Nc1ccc2c(c1)OCCO2` (stereo unspecified) gave an RP-LC retention time of 666 s.

With `CCc1cccc(NC(=O)C2CCCN(S(=O)(=O)c3cc(-c4noc(C)n4)cs3)C2)c1` (stereo unspecified), the RP-LC retention time was found to be 870 s. In turn, `O=C(CCNc1c(-c2ccc(F)cc2)nc2cnccn12)N1CCCCC1` had an RP-LC retention time of 730 s. For the compound `COc1ccc(NC(=O)c2cccc(F)c2)c2ccccc12`, the RP-LC retention time amounted to 852 s. Compound `CCOc1ccc(NC(=O)N(C)Cc2nc3ccccc3c(=O)n2CCOC)cc1` returned an RP-LC retention time of 811 s. The same measure for `CC(C)c1cc(C2CCCN2C(=O)c2ccccc2)no1` (stereo unspecified): 847 s; for `COc1ccc(-c2nc(C)cc(C)c2CNS(=O)(=O)c2cccs2)cc1`: 642 s. For `COCc1noc([C@@H]2CC(F)(F)CN2C(=O)CC(C)(C)C)n1`, the RP-LC retention time turned out to be 830 s. The same measure for `CC(C)NC(=O)c1c2c(cn(-c3ccccc3)c1=O)C(=O)CC(C)(C)C2`: 878 s; for `COCc1nc2nccc(-c3ccccc3)n2n1`: 672 s; for `OC(CNCc1ccc(-c2ccc(F)cc2)o1)c1ccccc1` (stereo unspecified): 687 s. The same measure for `CC1(C(=O)NC2CCCCCCC2)CN(S(C)(=O)=O)CC(=O)N1c1cccc(Cl)c1` (stereo unspecified): 963 s. With `CCC1CCCCN1S(=O)(=O)c1cc(-c2nnc(C)o2)co1` (stereo unspecified), the RP-LC retention time worked out at 857 s. Compound `Cc1ccc(CN2CCn3c(nn(C)c3=O)C2)cc1C` gave an RP-LC retention time of 662 s. In turn, `Cc1ccc(F)c(NS(=O)(=O)c2cc3c(s2)CCN(C(=O)C2CCC2)C3)c1` showed an RP-LC retention time of 891 s. Under `Cn1ccc2c(cc(C(=O)N3CCN(c4ccc(F)cc4)CC3)n2C)c1=O` stands 689 s; under `O=C(NC1CCN(Cc2ccccc2)CC1)C1CCCN(c2cnc3nccnc3c2)C1` (stereo unspecified), 907 s. For the compound `COC(=O)c1ccccc1NC(=O)Cn1c(-c2nonc2N)nc2ccccc21`, the RP-LC retention time was 993 s. Regarding `O=C(Cn1cnc2sc3c(c2c1=O)CCCC3)Nc1cccc(Cl)c1`, the RP-LC retention time was found to be 984 s. Under `Cc1ccc2nc(Nc3nccc(C)n3)nc(C)c2c1` stands 616 s; under `CCN1C(=O)COc2ccc(-c3csc(NC(=O)C(C)(C)C)n3)cc21`, 910 s. Under `Cc1ccc2c(c1)N(CCC(C)C)N=C(C(=O)N1CCCC1)S2(=O)=O` stands 939 s; under `CN1C(=O)c2cc(S(=O)(=O)Nc3ccc(F)c(F)c3)ccc2Oc2cccnc21`, 910 s; under `Cc1ccc(-c2cc3c(N4CCC(C(=O)NC5CCCCC5)CC4)nccn3n2)c(C)c1`, 905 s.

The compound `C=CCNC(=O)N1CCCN(C2=NS(=O)(=O)C(c3cccc(Cl)c3)=C2C)CC1` came in with an RP-LC retention time of 773 s.

Consider `COc1ccc(N2CCN(C(=O)C3CCN(c4cnc5nccnc5c4)CC3)CC2)cc1`, for which the RP-LC retention time amounted to 634 s. Under `Cc1ccc(-c2nc(-c3ccc4c(c3)nc(C)c(=O)n4C)no2)cc1` stands 1090 s; under `CCC(C(=O)Nc1c(-c2ccc(OC)cc2)nc2cc(C)ccn12)c1ccccc1` (stereo unspecified), 713 s. Consider `Cn1cc(C(CNC(=O)Nc2ccccc2Cl)c2cccnc2)c2ccccc21` (stereo unspecified), for which the RP-LC retention time was determined as 726 s.

On to `Cc1nn(CC(=O)NCCN(C)C)c(=O)c2cc(-c3ccccc3)nn12`, for which the RP-LC retention time is 625 s.

`Cc1ccc(NC(=O)C2CCN(S(=O)(=O)c3ccc4c(c3)sc(=O)n4C)CC2)cc1C` returned an RP-LC retention time of 913 s.

In turn, `CC(C)(C)OC(=O)Nc1ccc(-c2cc(C(=O)NCCCCCCC(=O)NO)no2)cc1` returned an RP-LC retention time of 739 s. The same measure for `Cc1ccc(C)c(N2C(=O)CC(N3CCC(C(N)=O)CC3)C2=O)c1` (stereo unspecified): 601 s; for `COc1ccc(C)c(N2C(=O)CC(N3CCC(C(N)=O)CC3)C2=O)c1` (stereo unspecified): 586 s; for `Cc1ccc(F)cc1S(=O)(=O)N1CCCC(C)(C(=O)NCc2cccc(F)c2)C1` (stereo unspecified): 1020 s. `CC(C)CCNC(=O)CCCn1c(=O)c2cccn2c2ccccc21` gave an RP-LC retention time of 859 s.

In turn, `Cc1ccc2nc3c(c(C(=O)NCC(C)C)c2c1)CCC3` showed an RP-LC retention time of 650 s. The same measure for `COc1ccc(-n2c(=O)c3sccc3n(Cc3nc(-c4ccc(Cl)c(F)c4)no3)c2=O)cc1`: 1060 s; for `CCN1C(=O)C(C)(C(=O)Nc2ccc(F)cc2F)Oc2cccnc21` (stereo unspecified): 875 s; for `CC1CCCCN1CCCNC(=O)C1=Cc2cc(Br)ccc2OC1` (stereo unspecified): 696 s. On to `CCCNc1cc(N2CCCC(CCC(=O)Nc3ccc(OC)cc3OC)C2)ncn1` (stereo unspecified), for which the RP-LC retention time came out at 707 s. Take `Cc1cnc(C(=O)N2CCC(c3noc(-c4ccccn4)n3)C2)cn1` (stereo unspecified): the RP-LC retention time amounted to 628 s. The same measure for `O=C(Cc1ccc(Cl)cc1)N1CCN(c2ncccc2-c2nnc(C3CC3)o2)CC1`: 872 s; for `CCN1C(=O)c2cccnc2Sc2cc(NC(=O)C3(c4ccccc4)CC3)ccc21`: 937 s.

Take `CC1CCC(C(=O)NC(Cc2c[nH]c3ccccc23)C(=O)Nc2ccncc2)CC1` (stereo unspecified): the RP-LC retention time was 668 s.

`CS(=O)(=O)c1ccc(Nc2nc(C(=O)Nc3ccc(F)c(Cl)c3)cs2)cc1`: the RP-LC retention time came to 843 s. In turn, `O=C(NCC1CCN(C(=O)c2cc3ccccc3o2)CC1)C(=O)Nc1cccnc1` had an RP-LC retention time of 601 s.

The compound `COc1ncc(C(=O)N2CCN(c3ccccc3F)CC2)cn1` yielded an RP-LC retention time of 770 s. The compound `CCOc1ccc(-n2c(=O)c3sccc3n(Cc3nc(-c4cccc(OCC)c4)no3)c2=O)cc1` showed an RP-LC retention time of 1080 s. Regarding `CCCCNc1c(C(=O)OC)c(=O)[nH]c2ccc(F)cc12`, the RP-LC retention time was 734 s.

`Cc1ccc(CCNC(=O)C2CCN(C(=O)c3sccc3-n3cccc3)CC2)cc1` yielded an RP-LC retention time of 882 s. The same measure for `Cc1nc(CSc2ccc(-c3cccc([N+](=O)[O-])c3)nn2)cs1`: 817 s. Take `CC(C)NC(=O)C1CCCN(c2nc3ncn(CC(=O)NC4CCc5ccccc54)c(=O)c3s2)C1` (stereo unspecified): the RP-LC retention time came out at 709 s. Under `COc1ccc(-c2cc(C(=O)N(C)C)c(C)n2C)cc1` stands 808 s.

The record behind these values is the METLIN SMRT retention time set (Domingo-Almenara et al. 2019).
